The text below walks through data of publication PMC7849180 (Frontiers in Pharmacology, 2020).

The subject of one series is myelofibrosis. Put plainly: Myelofibrosis in JAK2V617F bone marrow transplanted mice. The format is in vivo. The following applies: 100 mg/kg, 5 weeks.
On the set-up of series [1]: species or system Wistar rats. To be noted: rat, in vivo, po. An excerpt:
Suzhou Zelgen Biopharmaceuticals Co., Ltd. Jaktinib Hydrochloride Tablets Chemical Drug Class 1 New Drug chromosomal structural aberrations in CHL cells. Therefore, the results of the chromosomal aberration test were negative.
Mouse Bone Marrow Micronucleus Test
A mouse bone marrow micronucleus test of ZG0128 has been performed. After multiple doses of ZG0128 are given to mice via oral gavage, the incidence of micronucleated polychromatic erythrocytes in the bone marrow is observed to estimate the damage to chromosomal integrity in bone marrow cells and subsequent abnormality of chromosome segregation, so as to determine the presence of genotoxicity. The results […]
were observed every day. […] The body weight of female rats was measured twice a week before pregnancy and on days 0, 2, 4, 6, 9, 12, and 15 of gestation after successful mating. The food intake of male and female rats was measured once a week before mating. After successful mating, the food intake of female rats was measured on days 0, 6, and 12 of gestation. […] In addition, the weights of testes, epididymides, prostate, and seminal vesicles were measured to calculate the organ coefficients. […] In addition, the weights of the pregnant uterus, placenta and uterus, placenta, ovaries, brain, and the total weight of live fetuses were measured. […]

Series [2] has as its system primary cells harboring the JAK2V617F mutation in patients with polycythemia vera. Description: Colony forming of erythroid hematopoietic cells of polycythemia vera patients. The format is cell-based, human. To be noted: 1 μM. The source says:
Suzhou Zelgen Biopharmaceuticals Co., Ltd. Jaktinib Hydrochloride Tablets Chemical Drug Class 1 New Drug and ZG0178. However, the inhibitory effect on the activity of Ba/F3-EpoR cell line […]
respectively. Obviously, this selective inhibition is associated with the aberrant expression of JAK2 in Ba/F3-EpoR-JAK2V617F mutant cells, and the degree of ZG0163 inhibition on JAK-STAT signaling pathway in this cell line. […]
cells, and the effects of ZG0163 was similar to those of positive control compounds, […]
In Vitro Inhibitory Effect of ZG0128 on Cell Lines Transfected with Oncogenes and Primary Blood Cells in Patients with Polycythemia Vera
In vitro cell culture assay was used to determine whether compound ZG0128 […]
cell line harboring a JAK2V617F mutation, and 8 HCD-57 cell lines stably transfected with oncogenic mutations JAK2V617F, MPLW515L, KITD816V, NPM-ALK, FLT3-ITD, FLT3D835H, FLT3D835Y and KRasG12V, respectively. In addition, study the inhibitory effects of compound ZG0128 on the growth of hematopoietic progenitor cells in patients with polycythemia vera.
9 cell lines were similar to those of positive control drug ZG0192. At the sub-micromolar concentration, both compounds ZG0128 and ZG0192 were able to […]
the growth of HCD-57 cells transfected with oncogenic mutations JAK2V617F, […]
spectrum inhibitory effect on tyrosine kinases. […]

Series [3] deals with cells transformed by selected oncogenic mutants of tyrosine kinases. Description: Inhibition of transformed cells. The format is cell-based.
The conditions of series [4]: in vivo.
Method: Food effect part was a two-period crossover study and conducted after finishing both SAD and MAD parts. […] For group A, the urine and feces samples for pharmacokinetic (PK) analysis were collected in the first period.
Safety was assessed according to the NCI CTCAE version 4.03, including AEs of changes in vital signs, 12-lead ECGs, abdominal ultrasound, chest X-ray, physical examination and clinical laboratory tests. Abdominal ultrasound and chest X-ray were only performed at screening. 12-lead ECGs, physical examination and clinical laboratory tests were conducted in screening and day 3 after administration in SAD cohorts; days 4, 7 and 12 in MAD cohorts; day 8 in food effect cohort. Vital signs were measured at screening and admission, 0 h (pre-dose) and 2, 6, 24, 48 h after administration in SAD cohorts; 0, 2, 6 h on day 1, 0 h on days 2, 3, 4, 7, 0, 2, 6, 24, 48 h after the last dose in MAD cohorts; 0, 2, 6, 24, 48, 72, 120 h in period 1 and 2, 6, 24, 48 h in period two in food effect cohort.

On to `Cl.Cl.O.[2H]C1([2H])COCC([2H])([2H])N1c1ccc(Nc2nccc(-c3ccc(C(=O)NCC#N)cc3)n2)cc1` [ZG0128, Jaktinib Dihydrochloride Monohydrate], for which the progression of myelofibrosis entry with myelofibrosis was “significantly and effectively inhibited the progression of myelofibrosis”. Also, in series [1], the “NOAEL for reproductive functions and embryonic development” value is 18 mg/kg. In addition, the “colony forming of erythroid hematopoietic cells” value in series [2] is “almost completely inhibited”.

As to Jaktinib, the IC50 in series [3] was 100 nM. In series [4], the “treatment-related Grade 4–5 AEs” value is “Note: No treatment-related Grade 4–5 AEs observed in food effect cohorts”.

Broadly, the IC50 is the concentration that gives 50% inhibition. Read a high IC50 as lower potency.
